{
  "source": "paper PMC7044277",
  "about": "(Nature Communications, 2020)",
  "format_in_all_cases": "cell-based",
  "key": {"[1]": {"target": "T1, 320 non-olfactory GPCRs (Homo sapiens, UniProt P46091)", "T1 construct": "expressed in transfected cells; host or cells: HTLA cells", "T1 sequence (P46091 whole entry)": "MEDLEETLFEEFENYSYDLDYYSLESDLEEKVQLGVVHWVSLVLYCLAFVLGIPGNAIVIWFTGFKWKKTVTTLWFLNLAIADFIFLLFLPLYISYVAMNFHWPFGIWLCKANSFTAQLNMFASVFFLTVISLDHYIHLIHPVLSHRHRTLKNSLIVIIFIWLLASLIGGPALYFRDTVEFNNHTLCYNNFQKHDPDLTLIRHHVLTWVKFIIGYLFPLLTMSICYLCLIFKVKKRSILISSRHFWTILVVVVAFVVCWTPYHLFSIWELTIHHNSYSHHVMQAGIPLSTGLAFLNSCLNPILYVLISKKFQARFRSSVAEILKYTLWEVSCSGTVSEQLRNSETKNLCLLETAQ"}, "[2]": {"target": "T2, 320 non-olfactory GPCRs (Homo sapiens, UniProt Q86SQ6)", "T2 construct": "expressed in transfected cells; host or cells: HTLA cells", "T2 sequence (Q86SQ6 whole entry)": "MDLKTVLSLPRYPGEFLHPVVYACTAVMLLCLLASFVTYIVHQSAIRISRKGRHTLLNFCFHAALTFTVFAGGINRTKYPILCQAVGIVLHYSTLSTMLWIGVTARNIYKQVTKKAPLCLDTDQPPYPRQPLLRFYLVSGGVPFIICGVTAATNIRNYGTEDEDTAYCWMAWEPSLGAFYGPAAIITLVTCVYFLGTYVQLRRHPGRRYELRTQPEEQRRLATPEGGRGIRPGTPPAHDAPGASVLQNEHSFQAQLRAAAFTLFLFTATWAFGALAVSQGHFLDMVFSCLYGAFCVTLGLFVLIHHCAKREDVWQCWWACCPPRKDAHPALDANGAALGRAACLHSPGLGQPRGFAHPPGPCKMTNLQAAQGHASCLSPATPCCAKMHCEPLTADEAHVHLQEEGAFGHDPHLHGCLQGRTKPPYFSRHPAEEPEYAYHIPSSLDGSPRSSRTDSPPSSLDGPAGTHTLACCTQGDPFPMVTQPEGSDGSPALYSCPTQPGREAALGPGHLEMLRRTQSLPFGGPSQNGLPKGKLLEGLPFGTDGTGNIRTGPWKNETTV"}, "[3]": {"target": "320 non-olfactory GPCRs (Homo sapiens, UniProt P61073)", "sequence (P61073 whole entry)": "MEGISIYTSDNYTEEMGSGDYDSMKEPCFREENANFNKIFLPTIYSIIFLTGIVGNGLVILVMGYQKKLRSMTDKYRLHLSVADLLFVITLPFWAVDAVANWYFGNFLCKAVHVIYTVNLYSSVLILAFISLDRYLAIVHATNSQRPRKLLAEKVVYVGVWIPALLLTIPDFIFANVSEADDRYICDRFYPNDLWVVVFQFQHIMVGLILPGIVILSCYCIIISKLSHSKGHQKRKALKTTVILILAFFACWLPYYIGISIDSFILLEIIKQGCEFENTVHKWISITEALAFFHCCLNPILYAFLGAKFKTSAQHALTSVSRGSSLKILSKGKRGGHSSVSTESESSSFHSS"}, "[4]": {"target": "T3, 320 non-olfactory GPCRs (Homo sapiens, UniProt Q15391)", "T3 construct": "expressed in transfected cells; host or cells: HTLA cells", "T3 sequence (Q15391 whole entry)": "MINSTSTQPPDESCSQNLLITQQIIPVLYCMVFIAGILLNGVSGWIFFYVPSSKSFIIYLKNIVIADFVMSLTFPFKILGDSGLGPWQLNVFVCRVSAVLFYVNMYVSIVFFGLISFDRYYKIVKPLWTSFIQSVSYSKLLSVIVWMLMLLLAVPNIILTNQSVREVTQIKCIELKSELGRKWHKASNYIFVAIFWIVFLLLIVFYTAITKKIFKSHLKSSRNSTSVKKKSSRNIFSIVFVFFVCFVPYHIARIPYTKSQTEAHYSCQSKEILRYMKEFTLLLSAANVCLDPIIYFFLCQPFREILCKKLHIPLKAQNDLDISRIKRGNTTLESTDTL", "conditions": "receptor P2RY14; replicate values, Fig_4g"}},
  "note": "Several values for one entry are separate records, joined by “and”; a condition that tells them apart may be missing. Equal values may be shown once.",
  "data": [
    {"compound": "CCOc1cccc2cc(C(C)NCC3(O)CCCCC3)oc12", "note": "(stereo not shown) [O4LE6];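 for Fold of Basal: compound tested at 1 µM final concentration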;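 for GPCRome agonism screen response: fold over basal response of each receptor without drug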", "values": [
      {"measurement": "Fold of Basal", "setting": "[1]", "value": "1.745 and 1.544 and 1.297 and 1.2172"},
      {"measurement": "Fold of Basal", "setting": "[2]", "value": "0.9894 and 1.559 and 1.433 and 1.372"},
      {"measurement": "Fold of Basal", "setting": "[3]", "value": "0.9863 and 0.8615 and 0.8471 and 0.9066"},
      {"measurement": "GPCRome agonism screen response", "setting": "[4]", "value": "0.8976 and 0.7161 and 0.7434 and 0.9997"}
    ]}
  ]
}
